Test results as given in patent US20250186448A1 (Mezzion Pharma Co., Ltd., priority 2021, published 2025).
Where “and” joins values, the source holds several entries; their conditions need not be identical. Equal values may be shown once.

Columns and labels:
Assay type in all cases: in vivo, human
[1] = system: adolescents with Fontan physiology; test: FUEL trial: safety, adverse event reports
Excerpt: The primary outcome was the change in oxygen consumption at peak exercise (max or peak VO2) from baseline to the 26-week visit. Secondary exercise outcomes included change in additional measures at maximal exertion, as well as change in measures of submaximal exercise at the ventilatory anaerobic threshold (VAT). The primary outcome for clinical secondary aims included change in myocardial performance index (MPI), an echocardiographically-derived measure of systolic and diastolic ventricular function, change in log-transformed reactive hyperemia index (lnRHI), a PAT-derived measure of peripheral vascular function, and change in log-transformed serum BNP level. Safety was monitored through adverse event reports, which were collected according to a pre-specified protocol of study coordinator outreach, and through ad hoc patient and family communication with members of the study team at each site.
The primary outcome for clinical secondary aims included the between group differences in change in myocardial performance index (MPI), an echocardiographically-derived measure of systolic and diastolic ventricular function, change in log-transformed reactive hyperemia index (lnRHI), a PAT-derived measure of peripheral vascular function, and change in log-transformed serum BNP level. Measurements for each of these secondary outcomes were performed at core labs. Safety was monitored through adverse event reports, which were collected according to a pre-specified protocol of study coordinator outreach, and through ad hoc patient and family communication with members of the study team at each site.

[2] = system: adolescents with Fontan physiology; test: FUEL trial: echocardiographic myocardial performance index (MPI), blood pool Doppler
Excerpt: Generally speaking, MPI (also referred to as the Doppler-derived index or Tei Index) is a measure of ventricular systolic and diastolic function as determined by a focused echocardiogram. It combines systolic and diastolic time intervals to assess heart function. More specifically, MPI can be used to assess ventricular performance represented by a numeric value using cardiac time intervals. This numeric value equals the sum of isovolumetric contraction time (ICT) and isovolumetric relaxation time (IRT) divided by ejection time (ET) and can be determined for either the left or right ventricle. Pellett, A. A., et al.: The Tei Index: Methodology and Disease. State Values. Echocardiography: A Jrnl. of CV Ultrasound & Allied Tech. 21(7):669-672 (2004); and Uluçay, A., Tatli E.: Myocardial performance index. Anadolu Kardiyol Derg. 8(2):143-8 (April, 2008), both of which are incorporated herein by reference in their entireties. In the FUEL Trial, the MPI measured the performance of the single functioning ventricle. Thus, the MPI results from the FUEL Trial were determined by velocities obtained from blood pool Doppler assessment of the inflow and outflow tract of the functioning single ventricle. In other words, the FUEL Trial MPI was determined by measuring the cardiac time intervals using pulsed-wave Doppler velocity spectra of the ventricular inflow and outflow of the single functioning ventricle.
Echocardiograms were performed by sonographers with specific training for this protocol. The primary outcome of interest was MPI using Doppler-based measures of inflow and outflow duration. The duration of inflow into the dominant ventricle and outflow across the dominant semilunar valve were measured and used to calculate MPI using the standard formula. Tei C, Ling L H, Hodge D O, et al.: New index of combined systolic and diastolic myocardial performance: a simple and reproducible measure of cardiac function—a study in normal and dilated cardiomyopathy. J Cardiol, 26(6):357-66 (1995); and Pellet A A et al.: The Tei Index: Methodology and Disease State Values. Echocardiography: A Jrnl Of CV Ultrasound & Allied Tech, 21(7):669-672 (2004). Additional tissue Doppler images were obtained and used to calculate the tissue Doppler based MPI as previously described. Harada K, Tamura M, Toyono M et al.: Comparison of the right ventricular Tei index by tissue Doppler imaging to that obtained by pulsed Doppler in children without heart disease. Am J Cardiol, 90(5):566-9 (2002). Whenever possible, three measurements were made and the mean duration was used for the calculation.
The primary outcome was the change in oxygen consumption at peak exercise (max or peak VO2) from baseline to the 26-week visit. Secondary exercise outcomes included change in additional measures at maximal exertion, as well as change in measures of submaximal exercise at the ventilatory anaerobic threshold (VAT). […] Safety was monitored through adverse event reports, which were collected according to a pre-specified protocol of study coordinator outreach, and through ad hoc patient and family communication with members of the study team at each site.
Each subject underwent an echocardiogram at the start and finish of the 26 weeks. […] The change in the MPI was determined by velocities obtained from blood pool Doppler assessment of the inflow and outflow tract of the single functioning dominant ventricle. […]

[3] = system: adolescents with Single Ventricle Heart Disease who underwent Fontan palliation; test: FALD study: liver stiffness by MR elastography; set-up: MRE, Post Baseline: unit not given beside the values; MRE, Change from Baseline / MRE, Baseline: unit not given here
Procedure: MR elastography uses a vibrating passive driver or “paddle” placed on the abdominal wall over the liver in order to generate in vivo shear waves. These shear waves can be tracked using an MRI modified phase contrast pulse sequence. Shear wave data is then used to generate color parameteric maps (elastograms) of liver stiffness that allow quantitative assessment (FIG. 4). […] Pairwise ICCs ranged from 0.67-0.82 when agreement was assessed between individual sequences across manufacturers (GE vs. Philips); the greatest agreement while fixing the pulse sequence was at 1.5 T using 2D GRE sequences (ICC=0.82, r=0.85). Trout […], Kohli R, Sprague […]. Prospective assessment of correlation between US acoustic radiation forced impulse and MR elastography in a pediatric population: Dispersion of US shear-wave speed measurement matters. Radiology 2016 December; 282(3): 544-552. The FALD study, ClinicalTrials.gov Identifier: NCT03430583, which is incorporated herein by reference in its entirety, was an open-label extension study that integrated with the FUEL Extension Trial. […] Both the U- cohort and the U+ cohort had liver stiffness measured by ultrasound and MR elastography (where available), and ELF biomarkers analyzed, as described above. […] The primary outcome measure of the FALD study was the range of liver stiffness in adolescents with Single Ventricle Heart Disease who underwent Fontan palliation. Secondary outcome measures included the effect of drug therapy on liver stiffness, and the effect of drug therapy on Enhanced Liver Fibrosis (ELF) score. See Clinical Trials.gov identifier NCT03430583, at p. 3. It is to be understood that present invention contemplates udenafil drug products that are therapeutically equivalent to the udenafil drug products of the present invention.

[4] = Cohort U+ (udenafil for 78 weeks), individual subject
[5] = Cohort U− (udenafil for 52 weeks), individual subject
[6] = individual subject listing, Safety Population

CCCOc1ccc(S(=O)(=O)NCCC2CCCN2C)cc1-c1nc2c(CCC)nn(C)c2c(=O)[nH]1 (centres unmarked) [Udenafil, udenafil]
Deaths in the study cohort ([1]; FUEL trial): no deaths | Non-serious adverse event: Dizziness, participants ([1]; human, in vivo, 6 months): 16 (8.0) n (%) | Non-serious adverse event: Epistaxis, participants ([1]; human, in vivo, 6 months): 21 (10.5) n (%) | Non-serious adverse event: Flushing, participants ([1]; human, in vivo, 6 months): 32 (16.0) n (%) | Non-serious adverse event: Headache, participants ([1]; human, in vivo, 6 months): 79 (39.5) n (%) | Non-serious adverse event: Nausea/vomiting, participants ([1]; human, in vivo, 6 months): 31 (15.5) n (%) | Participants who experienced a serious adverse event ([1]; human, in vivo, 6 months): 14 | Serious adverse events with possible, probable, or definite relationship to study drug, number of events ([1]; human, in vivo, 6 months): 3 | Headache, facial flushing, abdominal pain, epistaxis, and erection (male participants), frequency vs placebo ([1]; in vivo): more common in the udenafil group | Priapism ([1]; in vivo): no reported episodes of priapism | Non-serious adverse event: Increased erection, participants ([1]; male, human, in vivo, 6 months): 13 (11.7) n (%) | MPI difference, Week 26 - Baseline, mean ([2]; 87.5 mg twice daily, paired data, decrease shows improvement, p 0.028 vs placebo): 122: −0.02 | MPI, LS Mean Dif A − B (udenafil − placebo) ([2]; Baseline, p 0.818): −0.0 | MPI, LS Mean Dif A − B (udenafil − placebo) ([2]; Week 26, p 0.024): −0.04 | MPI, LS Mean Dif A − B (udenafil − placebo) of difference Week 26 - Baseline ([2]; p 0.028): −0.03 | MPI, udenafil treated group compared to placebo ([2]; p=0.028): statistically significant improvement | MRE, % Change from Baseline [3, 4]: 2.863% and −2.262% and 12.04% and −0.4975% and 7.265% and −14.99% and −24.27% and 16.67% and 18.93% and 0.4975% and −29.4964% and 2.198% and −16.26% and 10.4% and −20.63% and −8.58% and −11.11% and −19.68% and −21.1704% and −12.02% and −6.235% | MRE, Change from Baseline [3, 4]: 0.15 and −0.1 and 0.49 and −0.03 and 0.98 and 0.34 and −0.52 and −1.59 and 0.81 and 0.03 and −1.64 and 0.1 and −0.86 and 0.7 and −1.05 and −0.58 and −0.67 and −0.98 and −1.23 and −0.59 and −0.26 | MRE, Baseline ([3]; Cohort U+ (udenafil for 78 weeks), individual subject, Baseline visit): 4.42 and 5.88 and 4.07 and 6.03 (3×) and 4.68 and 3.47 and 6.55 and 4.28 and 5.56 and 3.65 and 4.55 and 5.29 and 6.73 and 5.09 and 6.76 and 4.98 and 5.81 and 4.91 and 4.17 and 5.24 | MRE, Post Baseline ([3]; Cohort U+ (udenafil for 78 weeks), individual subject, Post Baseline visit (52 week)): 5.39 and 4.32 (2×) and 6.86 and 4.56 and 6 and 5.02 and 2.95 and 4.96 and 5.09 and 6.06 and 3.92 and 4.65 and 4.43 and 7.43 and 4.04 and 6.18 and 5.36 and 4 and 4.58 and 3.91 | MRE, % Change from Baseline [3, 5]: 8.484% and 8.085% | MRE, Change from Baseline [3, 5]: 0.61 and 0.19 | MRE, Post Baseline ([3]; Cohort U− (udenafil for 52 weeks), individual subject, Post Baseline visit (52 week)): 7.8 and 2.54 | MRE, % Change from Baseline [3, 6]: 2.488% and −28.79% and 3.632% and −2.018% and −21.1838% and 67.93% and 25.85% and 11.98% and −10.36% and 12.33% and −5.348% and 17.24% and 33.15% and −8% and −7.32% | MRE, Change from Baseline [3, 6]: 0.1 and −1.48 and 0.15 and −0.11 and −1.36 and 3.05 and 1.22 and 0.72 and −0.43 (2×) and 0.64 and 1 and 1.2 and −0.44 and −0.53 | MRE, Post Baseline ([3]; individual subject listing, Safety Population, Post Baseline visit): 4.12 and 3.66 and 4.28 and 5.34 and 5.06 (2×) and 7.54 and 5.94 and 6.73 and 3.72 and 5.83 and 2.81 and 7.61 and 6.8 and 4.82 and 6.71
